The results in this text go back to patent US8440460B2, “Methods for transdifferentiating cells” (The Board of Regents of the University of Texas System, priority 2005, dated 2013).

“And” between values parts separate entries of the source, which are not always exact repeats. Equal entries are not always repeated.

Assay [1] deals with normal bone marrow-derived CD45-negative MSCs. Kind of assay: FACS analysis of endothelial markers CD133 and VEGFR-2 in treated bone marrow-derived CD45-negative MSCs. The class given is cell-based, human. The following applies: five ng/mL 5-azacytidine days 1 and 4, 100 ng/mL EGF days 7 and 10; FACS day 13. On the procedure:
FIG. 9: Conversion of normal human bone marrow stroma to endothelial progenitor cells by 5-azacytidine and endothelial growth factor (EGF). Normal bone marrow-derived CD45-negative MSCs were used in this experiment and Five ng/mL of 5-azacytidine was added to culture on days 1 and 4, and 100 ng/mL EGF were added on days 7 and 10. The cultures were analyzed on day 13. The cells were stained with anti-CD133 APC and anti-VEGFR-2 PE antibodies and analyzed by FACS as described above. […] Note that the when treated with AZA+EGF 7.34% of MSC become CD133^+VEGFR-2^+.
In the next set of experiments the inventors determined whether fibroblasts could be reprogrammed to generate endothelial cells. […] Then, the cells were analyzed for the expression of two endothelial cell markers; the endothelial progenitor marker CD-133, as well as the expression of vascular endothelial growth factor-2 receptor (VEGFR-2).
In particular, normal bone marrow-derived CD45-negative mesenchymal cells (ie., bone marrow-derived fibroblastic cells) were used in this experiment and five ng/mL of 5-azacytidine was added to culture on days 1 and 4, and 100 ng/ml EGF were added on days 7 and 10. The cultures were analyzed on day 13. The cells were stained with anti-CD133 APC and anti-VEGFR-2 PE antibodies and analyzed by FACS as described above. […]
Background: A flow cytometer gives signals particle by particle.

Assay [2] concerns HS-5 cells. In words: Flow cytometry of 5-methylcytidine as a marker of global DNA methylation in HS-5 cells. The following applies: 5-azacytidine 2.5 uM overnight. The assay is classed as cell-based, human. The procedure: FIG. 3: Azacytidine hypomethylates HS-5 cells. […] HS-5 cells were treated w/ and w/o 5-azacytidine 2.5 uM overnight. After incubation the cells were harvested and washed in PBS. The cells were then fixed and permeabilized using the BD Cytofix/Cytoperm kit (BD Biosciences, San Diego Calif.) as per the kit instructions. After fixation and permeabilization the cells were stained using mouse anti 5-methylcytadine (Serotec Inc., Raleigh N.C.) for 30 minutes. After washing the cells 3 times in the Permwash buffer provided with the BD kit, the mouse antibody was then detected using an RPE labeled rabbit anti mouse IgG (Serotec) for 30 minutes. After 3 additional wash steps, the cells were resuspended in staining buffer (as per the BD kit) and analyzed on a FACSCaliber flow cytometer (BD Immunnocytometry Systems, La Jolla Calif.) for any decrease in 5-methylcytidine. […]
HS-5 cells were treated w/ and w/o 5-azacytidine 2.5 uM overnight. […] After washing the cells 3 times in the Permwash buffer provided with the BD kit, the mouse antibody was then detected using an RPE labeled rabbit anti mouse IgG (Serotec) for 30 minutes. After 3 additional wash steps, the cells were resuspended in staining buffer (as per the BD kit) and analyzed on a FACSCaliber flow cytometer (BD Immunnocytometry Systems, La Jolla Calif.) for any decrease in 5-methylcytidine. […]

Assay [3] deals with normal human foreskin fibroblasts. Conditions: FIG. 2 schedule, FACS day 6.
The subject of assay [4] is HS-5 cells. Kind of assay: CFU-GM colony culture assay in methylcellulose. The assay is classed as cell-based, human. Conditions: 14 days. The procedure:
FIG. 5: HS-5 cells transdifferentiate into hematopoietic colony-forming cells. Converted (see FIG. 1) and untreated HS-5 cells were harvested from the tissue culture flasks and culture in methylcellulose in a cl0nigtenic assay in the presence of 50 ng/mL GM-CSF, 50 ng/mL SCF and erythropoietin as described above. After 14 days the cultures were examined using an inverted microscope.
Colony-forming unit granulocyte-macrophage (CFU-GM) colony culture assay. The colony-forming unit-granulocyte-macrophage (CFU-GM) clonogenic assay was performed as previously described (49). Briefly, 2×10^5 treated and untreated cells were cultured in 0.8% methylcellulose in IMDM (GIBCO) supplemented with 10% FCS, and 50 ng/ml recombinant human granulocyte-macrophage colony-stimulating factor. […] All cultures were evaluated after 14 days for the number of CFU-GM colonies, defined as a cluster of more than 50 cells containing granulocytes, monocytes and macrophages. To identify the cells comprising the CFU-GM colonies, single colonies were microaspirated at random, transferred to glass slides, dried and stained with Write's stain and microscopically analyzed.
Converted (see FIG. 1) and untreated HS-5 cells were harvested from the tissue culture flasks and culture in methylcellulose in a cl0nigtenic assay in the presence of 50 ng/mL GM-CSF, 50 ng/mL SCF and erythropoietin as described above. […]

The test system of assay [5] is HS-5 fibroblast cell line. Kind of assay: FACS analysis of hematopoietic cell surface markers (CD45, CD3, CD14, CD19) in treated HS-5 cells. The class given is cell-based, human. Conditions: 5-azacytidine days 1 and 4, GM-CSF 50 ng/mL and SCF 50 ng/mL days 7 and 10 (FIG. 1 schedule), FACS day 13.
Experimental: In these studies, HS-5 fibroblast cells were transferred to tissue culture flasks as described herein. 2.5 μg 5-azacytidine were added to the culture at days 1 and 4. Granulocyte macrophage colony-stimulating factor (GM-CSF; 50 ng/mL) and stem cell factor (SCF; 50 ng/mL) were added to the culture on days 7 and 10. The cells were harvested and analyzed for the presence of hematopoietic cell surface markets such as CD45 on day 13.
The human bone marrow stroma/MSC cell line HS-5 was obtained from ATCC. These fibroblast-like cells are plastic adherent and grow as a single layer in α-medium (GIBCO, Grand Island, N.Y.) supplemented with 10% fetal calf serum (FCS; Hyclone, Logan, Utah). […] When growth factors were added, α-medium was replaced with Iscove's modified Dulbecco's medium (IMDM; GIBCO).
For the HS-5 cultures, HS-5 fibroblast cells were transferred to tissue culture flasks as described. […] The cells were harvested and analyzed for the presence of hematopoietic cell surface markets such as CD45 on day 13.
In these studies, HS-5 cells were incubated with or without 5-azacytidine and/or growth factors according to the schedule described in FIG. 1. On day 13 the cells were harvested and analyzed for the presence of cell surface CD45 by FACS. All viable cells were analyzed and the CD45-corresponding isotypic control was used.
For assay [6], the system named is normal bone marrow stroma (MSC) CD45-negative cells. Kind of assay: FACS analysis of CD45 in treated CD45-negative normal bone marrow stroma cells (MSC). The class given is cell-based, human. Conditions: FIG. 1 schedule.
Experimental: Human bone marrow stroma cells were grown from the bone marrow of healthy individuals as described above. When the cultures matured and formed homogenous layers of fibroblast-looking cells (termed mesenchymal stem cells; MSC), the cells were trypsinized and analyzed by fluorescence activated cell scanner/sorter (FACS; above) for the presence of the cell surface marker CD45. When the adherent fibroblast-like MSC became CD45-negative, the cells were harvested and transferred to another tissue flask (day 1 of culture).
Generation of Bone Marrow Stroma Cell Cultures. […] The culture medium and floating cells were completely aspirated and replaced with fresh tissue culture medium. Upon confluence, cells were exposed to 0.05% trypsin and 0.53 mM EDTA (GIBCO) at 37° C. for 10 min. Following incubation, FCS (v/v) was added for 5 min., the cells were removed from the tissue culture flasks, washed in PBS, transferred to new tissue culture flasks at a low density, and incubated with fresh tissue culture media. The cells were expanded and tested until all hematopoietic elements were no more present and all cells were CD45-negative.
For the normal marrow stoma cultures, human bone marrow stroma cells were grown from the bone marrow of healthy individuals as described above. When the cultures had matured and formed homogenous layers of fibroblast-looking cells, the cells were trypsinized and analyzed by fluorescence activated cell scanner/sorter (FACS; above) for the presence of the cell surface marker CD45. When the adherent fibroblast-like cells became CD45-negative, the cells were harvested and transferred to another tissue flask (day 1 of culture).

In the case of `Nc1ncn([C@@H]2O[C@H](CO)[C@@H](O)[C@H]2O)c(=O)n1` [5-azacytidine], the “CD133+VEGFR-2+ cells” value in assay [1] was 4.14%. Further, the “effect on 5-methylcytidine (DNA methylation)” value in the assay on HS-5 cells [2] was “hypomethylates”. In addition, the “conversion into CD45-positive cells (in words)” value in assay [3] was “converted them into CD45-positive cells”. Also, the “lateral/forward scatter analysis of the cell population” value in assay [3] is “generates a new transdifferentiated (“differentiated”) population of cells”. Further, in the assay on HS-5 cells [4], the “microscopic evaluation of the colonies” value was “characteristics of mixed granulocyte macrophage lineage”. The “cells expressing CD45” value in assay [5] is 3.5% and 11%. In addition, the “CD45 expression (in words)” value in assay [6] (FACS day 13) is reported as “slightly increased”; in assay [6] (FACS day 13, listed as 5-Azacytidine) it was “unable to give rise to a significant number of blood cells”; in assay [6] (FACS day 13, listed as 5-azcytidine), “remained CD45-negative”.
Consider EGF: epidermal growth factor, for which, in assay [1], the “CD133+VEGFR-2+ cells” value is below 1.5%.
